Reference: patent US12018084B2, “Anti-CXCR2 antibodies and uses thereof” (Cephalon LLC, priority 2018, dated 2024)

Assays:
CXCR1 = biological target: T1, CXCR1 (Homo sapiens, UniProt P25024); conditions: selectivity versus CXCR2; cited from earlier work
T1 sequence (P25024 1-350): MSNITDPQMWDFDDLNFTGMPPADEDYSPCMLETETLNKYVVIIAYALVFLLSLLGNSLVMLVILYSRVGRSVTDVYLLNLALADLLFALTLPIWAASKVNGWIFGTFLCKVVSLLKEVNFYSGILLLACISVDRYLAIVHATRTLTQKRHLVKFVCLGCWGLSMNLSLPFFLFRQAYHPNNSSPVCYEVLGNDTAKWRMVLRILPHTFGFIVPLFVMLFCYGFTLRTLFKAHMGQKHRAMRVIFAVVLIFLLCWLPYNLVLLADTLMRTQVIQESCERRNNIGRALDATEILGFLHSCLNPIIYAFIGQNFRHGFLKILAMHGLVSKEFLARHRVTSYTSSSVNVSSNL

CD11b expression = conditions: cited from earlier work
CCR2b receptors = biological target: T2, CCR2b receptors (Homo sapiens, UniProt P41597); conditions: selectivity versus CXCR2; cited from earlier work
T2 sequence (P41597 1-360 isoform P41597-2): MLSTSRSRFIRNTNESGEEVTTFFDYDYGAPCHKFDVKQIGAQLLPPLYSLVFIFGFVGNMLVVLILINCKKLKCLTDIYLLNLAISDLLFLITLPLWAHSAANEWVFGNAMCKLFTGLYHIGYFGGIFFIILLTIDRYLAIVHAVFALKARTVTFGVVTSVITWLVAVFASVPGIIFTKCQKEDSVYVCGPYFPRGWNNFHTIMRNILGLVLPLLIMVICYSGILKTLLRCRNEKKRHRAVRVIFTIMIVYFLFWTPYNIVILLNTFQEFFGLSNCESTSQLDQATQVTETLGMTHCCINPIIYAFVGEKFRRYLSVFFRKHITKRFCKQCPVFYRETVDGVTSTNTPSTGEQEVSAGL

COPD = conditions: in vivo; cited from earlier work
[1] = system: neutrophil surface expression of CD11b; conditions: cited from earlier work
Human CXCR2 [2] = biological target: T3, Human CXCR2 (Homo sapiens, UniProt P25025); experiment: Calcium flux assay, HTS002C-CHEMISCREEN human CXCR2 calcium-optimized cell line; assay type: cell-based; conditions: for EC50: human agonist potency
T3 sequence (P25025 1-360): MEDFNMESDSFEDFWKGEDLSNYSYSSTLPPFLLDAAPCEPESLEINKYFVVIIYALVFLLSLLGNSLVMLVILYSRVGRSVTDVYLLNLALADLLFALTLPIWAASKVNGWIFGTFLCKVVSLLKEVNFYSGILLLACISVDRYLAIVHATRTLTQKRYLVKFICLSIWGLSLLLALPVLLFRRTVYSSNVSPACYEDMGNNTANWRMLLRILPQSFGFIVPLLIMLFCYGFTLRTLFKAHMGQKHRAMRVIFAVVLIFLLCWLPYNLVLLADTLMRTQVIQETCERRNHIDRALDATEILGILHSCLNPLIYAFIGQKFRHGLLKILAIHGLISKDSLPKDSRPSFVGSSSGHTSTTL
Protocol: One of the signaling pathways downstream of CXCR2 activation that has a role in cell chemotaxis is characterized by calcium mobilization (flux). The ability of BKO-4A8-101c to inhibit human CXCR2 ligand-induced calcium flux was tested in the commercially available HTS002C-CHEMISCREEN™ human CXCR2 chemokine receptor calcium-optimized cell line.
The Fluo-4 NW calcium assay kit (Life Technologies) was used according to manufacturer's protocol for in-cell measurement of calcium mobilization, which was read using a FLIPR Tetra high-throughput cellular screening system (Molecular Devices). The peak response minus the basal response from each well was used to determine inhibition dose response curves fitting a four-parameter logistic equation and IC50 values.

Human CXCR2 [3] = biological target: T3, Human CXCR2; experiment: Tango CXCR2-bla U2OS cell-based β-arrestin recruitment assay; design: The beta-arrestin/TEV protease fusion and the beta-lactamase reporter are separate parts of the cell line; conditions: for EC50: human agonist potency
Text: Cells were thawed, propagated, cultured and frozen according to the manufacturer's directions.
Preparation of Tango™ CXCR2-bla U2OS cells for use in cell-based assays: The manufacturer's protocol was altered to make use of 96-well plates instead of 384-well plates. Briefly, dividing cells were harvested one day prior to use. Cells were harvested and resuspended in assay medium (100% FreeStyle™ Expression Medium; Life Technologies; Cat #12338-018) at a viable cell density of 312,500 cells/mL. 128 μL of cell suspension was added per well in 96-well black-walled, clear bottom tissue culture-treated plates. Cells were incubated for 16-20 hrs at 37° C. in an atmosphere of 5% CO2 prior to use in assays.
Tango™ assay procedure: Assays were set up and run as described in the manufacturer's protocol. For antagonist assays, agonists were used at concentrations in the EC50-EC80 range. Assays were read using a FlexStation® 3 (Molecular Devices) fluorescence plate reader configured with the parameters given in Table 4. The blue/green emission ratio for each well was calculated by dividing the blue emission values by the green emission values. All inhibition curves were fitted using a four-parameter dose-response using GraphPad Prism™ (Version 7.01).
The Human CXCR2 Tango™ cell line was used to assess the ability of antibody BKO-4A8-101c to inhibit β-arrestin recruitment to agonist-activated CXCR2. All human ELR+ chemokine CXCR2 ligands were tested in antagonist dose response assays using calculated EC50 values of agonist.
The commercially available reporter cell line Tango™ CXCR2-bla U2OS (ThermoFisher Scientific) was used to assess the ability of the anti-CXCR2 antibodies to inhibit β-arrestin recruitment to agonist-activated CXCR2. Agonists were provided at their assay EC50 concentration for antagonist assays.

[4] = system: mouse model of severe asthma; conditions: pre-treatment with 10 and 30 mg/kg; not significantly different from HDM-vehicle; cited from earlier work

Compound: C[C@@H](Oc1cc(NS(=O)(=O)N2CCC2)nc(SCc2cccc(F)c2F)n1)[C@@H](O)CO [AZD5069]
- fold less potent at CXCR1 (CXCR1): > 150 fold
- effect on C5a, LTB4 or fMLP induced CD11b expression (CD11b expression): no effect
- fold less potent at CCR2b receptors (CCR2b receptors): > 150 fold

Compound: Cc1c(F)cccc1NC(=O)Nc1ccc(Cl)c(S(=O)(=O)[C@H]2CCCNC2)c1O [Antagonist 5, Danirixin]
- primary end points in a Phase IIb trial for COPD (COPD): failed to meet primary end points
- CD11b upregulation on neutrophils [1]: block CD11b upregulation
- IC50, CXCL1-induced ex vivo neutrophil surface expression of CD11b [1]: 0.069 µg/mL
- IC90, CXCL1-induced ex vivo neutrophil surface expression of CD11b ([1]; range 158-1080 ng/ml): 0.62 µg/mL
- IC90 ([1]; range 356-2443 nM, read-out: IC90, CXCL1-induced ex vivo neutrophil surface expression of CD11b): 1400 nM
- IC50 ([1]; read-out: IC50, CXCL1-induced ex vivo neutrophil surface expression of CD11b): 156 nM
- CXCL1 Maximal Inhibition % (Human CXCR2 [2]; CXCL1 at EC50): 95%
- CXCL8 Maximal Inhibition % (Human CXCR2 [2]; CXCL8 at EC50): 97%
- CXCL1 Maximal Inhibition % (Human CXCR2 [3]; CXCL1 at EC50, comparison with comparators): 99%
- CXCL5 Maximal Inhibition % (Human CXCR2 [3]; CXCL5 at EC50, comparison with comparators): 99%
- CXCL8 Maximal Inhibition % (Human CXCR2 [3]; CXCL8 at EC50, comparison with comparators): 99%

Compound: CC[C@@H](Nc1c(Nc2cccc(C(=O)N(C)C)c2O)c(=O)c1=O)c1ccc(C)o1 [Antagonist 6, SCH 527123]
- inhibition of neutrophil cell numbers in the BAL (maximum) [4]: ≤ 30%

Compound: CXCL1: human agonist chemokine, Miltenyi Biotec 130-108-974 [reference compound]
- EC50 (Human CXCR2 [2]): 2.62 nM
- EC50 (Human CXCR2 [3]): 2.3 nM

Compound: CXCL2: human agonist chemokine, R&D Systems 276-GB [reference compound]
- EC50 (Human CXCR2 [2]): 37 nM
- EC50 (Human CXCR2 [3]): 33.3 nM

Compound: CXCL3: human agonist chemokine, R&D Systems 277-GG [reference compound]
- EC50 (Human CXCR2 [2]): 12.2 nM
- EC50 (Human CXCR2 [3]): 11.9 nM

Compound: CXCL5: human agonist chemokine, R&D Systems 254-XB [reference compound]
- EC50 (Human CXCR2 [2]): 39.2 nM
- EC50 (Human CXCR2 [3]): 97.7 nM

Compound: CXCL6: human agonist chemokine, R&D Systems 333-GC [reference compound]
- EC50 (Human CXCR2 [2]): 28.9 nM
- EC50 (Human CXCR2 [3]): 9.4 nM

Compound: CXCL8: human agonist chemokine, Miltenyi Biotec 130-108-979 [reference compound]
- EC50 (Human CXCR2 [2]): 3.2 nM
